Earlier results as cited in patent publication US20110015245A1, “BENDAMUSTINE AMPHIPHILIC CATIONIC COMPOSITIONS” (priority 2009, published 2011).
Where a name gives a salt, the structure may show the parent alone.

Conditions: 23° C.

## Cn1c(CCCC(=O)O)nc2cc(N(CCCl)CCCl)ccc21 [bendamustine hydrochloride]
  time stable in saline solution: 9 h
